Measured values from PMC9007462 (Journal of Medicinal Chemistry, 2022).

Key:
[1] = test system: patient-derived primary prostate tumor epithelial cells; conditions: other primary samples analyzed in the authors' laboratory; cited from earlier work
Human ALDH3A1 [2] = biological target: T1, Human ALDH3A1 (Homo sapiens, UniProt P30838); assay: ALDH3A1 inhibition, IC50, Ki and type of inhibition; format: biochemical; conditions: 31 μM 4-NBA as substrate; mean ± SE
T1 construct: made in house
T1 sequence (P30838 1-453): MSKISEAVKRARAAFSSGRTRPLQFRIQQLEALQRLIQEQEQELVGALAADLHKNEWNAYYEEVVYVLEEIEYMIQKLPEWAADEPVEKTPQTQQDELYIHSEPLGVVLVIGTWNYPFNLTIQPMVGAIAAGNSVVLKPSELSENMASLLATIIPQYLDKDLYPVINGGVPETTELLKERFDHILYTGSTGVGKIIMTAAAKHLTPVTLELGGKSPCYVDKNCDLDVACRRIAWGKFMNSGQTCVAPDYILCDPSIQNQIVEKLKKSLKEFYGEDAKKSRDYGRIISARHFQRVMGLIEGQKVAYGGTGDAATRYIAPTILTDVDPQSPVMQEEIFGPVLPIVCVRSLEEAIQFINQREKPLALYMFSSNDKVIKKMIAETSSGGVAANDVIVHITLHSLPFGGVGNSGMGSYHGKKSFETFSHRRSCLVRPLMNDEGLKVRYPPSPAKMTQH
Method: (§1) Human ALDH1A1, ALDH1A3, and ALDH3A1 were cloned and recombinantly expressed from the pET-30 Xa/LIC vector. Protein purification was achieved by affinity chromatography on a nickel-charged chelating Sepharose Fast Flow 5-mL column (His Trap column, Cytiva), which specifically binds the protein due to its N-terminal (His)6 tag, using an ÄKTA FPLC system (Cytiva), as previously described.[55] Enzymes including the His tag were stored at −80 °C in 20 mM Tris/HCl and 0.5 M NaCl, pH 8.0, until use. Reaction buffers were as follows: ALDH1A1 was assayed in 50 mM HEPES, 0.5 mM EDTA, and 0.5 mM DTT, pH 8.0; ALDH1A3 was assayed in 50 mM HEPES, 30 mM MgCl2, and 5 mM DTT, pH 8.0; and ALDH3A1 was assayed in 50 mM Tris–HCl and 5 mM DTT, pH 8.0. Activity under standard conditions was measured fluorimetrically at 25 °C using a Cary Eclipse (Varian) fluorimeter to follow the purification procedure and to check the enzyme concentration before each kinetic experiment. The fluorescence of NADH was characterized at 460 nm with excitation at 340 nm, and 5 μM NAD(P)H was added as an internal standard to obtain the absolute reaction rates.[55] Standard activity was measured at saturating concentrations of substrate using 30 μM hexanal (ALDH1A1), 250 μM hexanal (ALDH1A3), or 250 μM 4-NBA (ALDH3A1). NAD^+ was 500 μM for ALDH1A1 and ALDH1A3, and NADP^+ was 1 mM for ALDH3A1.
In order to determine the IC50 values, reaction rates were determined at various concentrations of inhibitor at a fixed concentration of substrate. As substrates for ALDH1A1, ALDH1A3, and ALDH3A1, 5 μM hexanal, 6 μM hexanal, and 31 μM 4-NBA, respectively, were used. The IC50 values were calculated by nonlinear fitting of the obtained data to a sigmoidal plot using GraFit 5.0 (Erithacus software), with the following 4-parameter equation [drawing 2] , where y is the specific activity, x is the inhibitor concentration, background is the minimum y value, range is the fitted uninhibited value minus the background, and s is the slope factor. Values are expressed as the mean ± SE.
Activity assays to determine the type of inhibition and Ki value were performed using various substrate and inhibitor concentrations maintaining the same conditions as for the IC50 experiments and using GraFit 5.0 for data processing. The data of enzymatic activities at different inhibitor concentrations were fitted to the Michaelis–Menten equation to determine the values of Km and Vmax. Next, results were fitted to the equations for competitive, given by [drawing 3]; noncompetitive, given by [drawing 4]; uncompetitive, given by [drawing 5]; and mixed, given by [drawing 6] .[56] The type of inhibition was selected based on the lowest error value. Parameters were expressed as the mean ± SE.

Human ALDH1A3 [3] = biological target: T2, Human ALDH1A3 (Homo sapiens, UniProt P47895); assay: ALDH1A3 inhibition, IC50, Ki and type of inhibition; format: biochemical; conditions: 6 μM hexanal as substrate; mean ± SE
T2 construct: made in house
T2 sequence (P47895 1-512): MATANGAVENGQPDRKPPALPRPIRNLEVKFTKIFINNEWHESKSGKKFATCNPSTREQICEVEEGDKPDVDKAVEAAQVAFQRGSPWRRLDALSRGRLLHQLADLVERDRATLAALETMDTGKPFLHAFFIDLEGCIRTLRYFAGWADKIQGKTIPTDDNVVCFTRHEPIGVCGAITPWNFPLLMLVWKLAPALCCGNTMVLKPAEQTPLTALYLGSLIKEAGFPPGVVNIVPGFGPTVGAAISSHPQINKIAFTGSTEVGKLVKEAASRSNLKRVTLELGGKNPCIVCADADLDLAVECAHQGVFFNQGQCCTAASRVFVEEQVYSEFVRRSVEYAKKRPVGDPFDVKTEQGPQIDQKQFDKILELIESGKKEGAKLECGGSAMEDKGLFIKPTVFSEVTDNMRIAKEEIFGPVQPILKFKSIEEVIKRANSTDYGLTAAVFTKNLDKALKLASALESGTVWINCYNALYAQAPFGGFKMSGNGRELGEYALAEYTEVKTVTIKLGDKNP
Method: Human ALDH1A1, ALDH1A3, and ALDH3A1 were cloned and recombinantly expressed from the pET-30 Xa/LIC vector. Protein purification was achieved by affinity chromatography on a nickel-charged chelating Sepharose Fast Flow 5-mL column (His Trap column, Cytiva), which specifically binds the protein due to its N-terminal (His)6 tag, using an ÄKTA FPLC system (Cytiva), as previously described.[55] Enzymes including the His tag were stored at −80 °C in 20 mM Tris/HCl and 0.5 M NaCl, pH 8.0, until use. Reaction buffers were as follows: ALDH1A1 was assayed in 50 mM HEPES, 0.5 mM EDTA, and 0.5 mM DTT, pH 8.0; […] Activity under standard conditions was measured fluorimetrically at 25 °C using a Cary Eclipse (Varian) fluorimeter to follow the purification procedure and to check the enzyme concentration before each kinetic experiment. […] In order to determine the IC50 values, reaction rates were determined at various concentrations of inhibitor at a fixed concentration of substrate. […] Values are expressed as the mean ± SE. […] The data of enzymatic activities at different inhibitor concentrations were fitted to the Michaelis–Menten equation to determine the values of Km and Vmax. Next, results were fitted to the equations for competitive, given by [drawing 3]; noncompetitive, given by [drawing 4]; uncompetitive, given by [drawing 5]; and mixed, given by [drawing 6] .[56] The type of inhibition was selected based on the lowest error value. Parameters were expressed as the mean ± SE.

DU145 = assay: MTT chemosensitivity assay, DU145; format: cell-based, human; conditions: Homo sapiens, DU-145, 96 h exposure, ± SD, at least three independent experiments
Method: (§2) MTT (3-(4, 5-dimethyl-2-thiazolyl)-2, 5-diphenyl-2H-tetrazolium bromide) assay was used to determine cell viability.[64] Immortalized PCa cells (PC-3, Du-145, and LNCaP) were seeded in 96-well plates and allowed to adhere overnight at 37 °C, 5% CO2, and 100% humidity. […] After 96 h of exposure, 200 μL of MTT (Sigma) solution (0.5 mg/mL) was added to each well and incubated at 37 °C for 4 h. The formazan crystals were dissolved in DMSO (Sigma), and the absorbance was read using a microplate reader (Multiskan EX; Thermo Fisher Scientific) at 540 nm. Data analysis was performed using Microsoft Excel 2013 and GraphPad Prism software.

LNCaP = assay: MTT chemosensitivity assay, LNCaP; format: cell-based, human; conditions: Homo sapiens, LNCaP, 96 h exposure, ± SD, at least three independent experiments
Method: as §2

PC3 = assay: MTT chemosensitivity assay, PC3; format: cell-based, human; conditions: Homo sapiens, PC-3, 96 h exposure, ± SD, at least three independent experiments
Method: as §2

[4] = test system: PC3, DU145 and LNCaP prostate cancer cell lines; assay: MTT chemosensitivity assay, panel of three prostate cancer cell lines; format: cell-based; conditions: Homo sapiens, 96 h exposure, read-out: IC50 against three prostate cancer cell lines
Method: as §2

Human ALDH1A1 = biological target: T3, Human ALDH1A1 (Homo sapiens, UniProt P00352); assay: DEAB analogues as substrates of ALDH1A1; format: biochemical; conditions: 10 μM compound as substrate, relative to activity with 10 μM hexanal (Figure S2)
T3 construct: made in house
T3 sequence (P00352 1-501): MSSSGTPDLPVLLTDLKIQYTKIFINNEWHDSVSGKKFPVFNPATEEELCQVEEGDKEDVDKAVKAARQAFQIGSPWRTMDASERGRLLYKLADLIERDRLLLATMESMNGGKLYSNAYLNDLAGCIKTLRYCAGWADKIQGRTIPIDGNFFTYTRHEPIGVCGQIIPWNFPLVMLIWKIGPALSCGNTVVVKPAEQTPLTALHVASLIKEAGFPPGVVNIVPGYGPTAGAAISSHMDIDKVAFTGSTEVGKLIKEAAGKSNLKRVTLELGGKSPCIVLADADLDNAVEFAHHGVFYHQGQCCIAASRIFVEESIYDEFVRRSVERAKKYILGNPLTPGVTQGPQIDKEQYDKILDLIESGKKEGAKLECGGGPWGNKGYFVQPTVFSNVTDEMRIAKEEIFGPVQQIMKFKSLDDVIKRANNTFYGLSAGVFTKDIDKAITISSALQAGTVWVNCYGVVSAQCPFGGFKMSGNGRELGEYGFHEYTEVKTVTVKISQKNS
Method: as §1
According to their structure with a carbonyl group, compounds were tested for their substrate properties against ALDH1A1, ALDH1A3, and ALDH3A1. […] Results are expressed as the percentage of activity at 10 μM versus the activity at 10 μM of their standard substrate (hexanal or 4-NBA). Values are expressed as the mean ± SE.

Human ALDH3A1 [5] = biological target: T1, Human ALDH3A1; assay: ALDH3A1 inhibition, IC50, Ki and type of inhibition; format: biochemical; conditions: measured at a saturating substrate concentration (4-NBA); mean ± SE
Human ALDH1A3 [6] = biological target: T2, Human ALDH1A3; assay: Inhibition screening, single point at 10 μM, ALDH1A3; format: biochemical; conditions: 10 μM compound; hexanal as substrate (Figure S1)
Method: as §1, with “Reaction buffers were as follows: ALDH1A1 was assayed in 50 mM HEPES, 0.5 mM EDTA, and 0.5 mM DTT, pH 8.0; ALDH1A3 was assayed in 50 mM HEPES, 30 mM MgCl2, and 5 mM DTT, pH 8.0; and ALDH3A1 was assayed in 50 mM Tris–HCl and 5 mM DTT, pH 8.0.” left out, “NAD^+ was 500 μM for ALDH1A1 and ALDH1A3, and NADP^+ was 1 mM for ALDH3A1.” left out
All compounds tested were dissolved in DMSO and assayed at a final concentration of 1% (v/v) DMSO. […] Alternatively, the enzymatic activity was measured in a Varian Cary 400 UV–vis spectrophotometer, by monitoring the increase in the absorbance of NAD(P)H at 340 nm (ε = 6.22 mM^–1·cm^–1) or in a Cary Eclipse Varian fluorimeter, as described above. […]

Structure (SMILES) | IC50 [1] | IC50 (Human ALDH3A1 [2]) | IC50 (Human ALDH1A3 [3]) | IC50 (DU145) | IC50 (LNCaP) | IC50 (PC3) | IC50 [4] | ALDH1A1 substrate activity (Human ALDH1A1) | IC50 (Human ALDH3A1 [5]) | remaining ALDH1A3 activity (Human ALDH1A3 [6])
CC(=O)O[C@@]12CO[C@@H]1C[C@H](O)[C@@]1(C)C(=O)[C@H](O)C3=C(C)[C@@H](OC(=O)[C@H](O)[C@@H](NC(=O)OC(C)(C)C)c4ccccc4)C[C@@](O)([C@@H](OC(=O)c4ccccc4)[C@H]21)C3(C)C [docetaxel] | 0.001 µM |  |  |  |  |  |  |  |  | 
CCN(CC)c1ccc(C=O)cc1 [DEAB, 4-(Diethylamino)benzaldehyde, reference compound] |  | 5.67 ± 0.66 µM | 10.4 ± 1 µM | > 200 µM | > 200 µM | > 200 µM | > 200 µM |  |  | 
CCCN(CCC)c1ccc(C=O)cc1Cl [Compound 7, 3-Chloro-4-(dipropylamino)benzaldehyde] |  |  | 0.55 ± 0.05 µM | 90 ± 27 µM | 10 ± 3 µM | 77 ± 17 µM |  | 17.9% | 13.7 ± 0.3 µM | 
Cc1cc(C=O)ccc1N1CCN(C)CC1 [Compound 24, 3-Methyl-4-(4-methylpiperazin-1-yl)benzaldehyde] |  |  |  |  |  |  |  |  |  | 45%
